Data set [1] is described as follows: In vitro skin penetration study using pig-ear (Bronaugh diffusion cells). The note with it: receiver PBS pH 7.4, 32° C.; for Cumulative penetrated amount: 24-hour period, pig-ear skin; for Steady state flux: pig-ear skin approx. 900 μm, average ± SD. The format is in vitro ADME. The protocol: Bronaugh diffusion cells were used for in vitro penetration studies, which were carried out to determine the flux (i.e. the speed by which the compound penetrates skin) and total cumulated amount penetrated of ^14C-active ingredient. The compound was dissolved in water at two concentrations, 35 and 135 mg/g. Pig-ear full-thickness skin (dermatomed to approx. 900 μm thick) was used as the membrane. The receiver compartment contained phosphate buffered saline (pH 7.4) and the temperature was maintained at 32° C. The compound solutions were applied onto the stratum corneum. Receiver compartment samples (2, 4, 8 12 and 14 h) were assayed by liquid scintillation counting. The transdermal flux (μg/cm^2/h) can be determined from the steady-state slope of the plot of the cumulative amount of active ingredient permeating through the skin versus time. After steady-state was established, the linear portion of the plot was used to calculate the flux from the slope.
The cumulative penetrated amounts and derived steady state fluxes for both tested concentrations during a 24-hour period are presented in FIG. 1 and TABLE 1.

The nature of data set [2]: Maximal solubility in water. The format is physicochemical.
Setting [3] is: test concentration 35 mg/g water.
[4] abbreviates: test concentration 135 mg/g water.

For `CN[C@@H](C)C/C=C/c1cncc(OC(C)C)c1` [active ingredient, (2S)-(4E)-N-methyl-5-(3-(5-isopropoxypyridin)yl)-4-penten-2-amine], the figures for the Cumulative penetrated amount in data set [1] (setting [3]) and in data set [1] (setting [4]) were 27 ± 36 μg/cm^2 and 55 ± 88 μg/cm^2, respectively. Moreover, the values for the Steady state flux in data set [1] (setting [3]) and in data set [1] (setting [4]) were 2.6 ± 3.6 μg/cm^2/h and 5.1 ± 9.0 μg/cm^2/h, respectively. In addition, the “maximal solubility in water” value in data set [2] is recorded as 200 mg/g.

These data come from patent publication US20100247617A1, “Transdermal Administration Of (2S)-(4E)-N-Methyl-5-(3-(5-Isopropoxypyridin)yl)-4-Penten-2-Amine” (TARGACEPT, INC., priority 2007, published 2010).
